Experiments:
[1] = test system: collagen-induced arthritis (CIA) model mice; assay: collagen-induced arthritis (CIA) model mice, clinical scores; type: in vivo, DBA/1J mice; set-up: key to Pairwise analysis of the difference between groups (clinical scores), vs Model / Pairwise analysis of the difference between groups (clinical scores), S5i 5 mpk vs S5i 10 mpk: p values from pairwise comparisons
Excerpt: FIGS. 8A and 8B show graphs depicting clinical score changes in four groups of CIA mouse models under different treatment schemes. In FIG. 8A, different chemicals (DMSO as control for Model group, blank group is left untreated) were daily administered intraperitoneally at the indicated doses from the first injection of the collagen agent. In FIG. 8B, different chemicals were daily administered intraperitoneally from the second injection of collagen agent at the indicated doses. Clinical scores were given double-blindly according to the scoring scheme every 2 days.
FIGS. 9A and 9B show graphs of clinical scores at day 44 for each group, the overall difference analyzed by ANOVA is significant p<0.0001, while the p value between Model and each individual group is labeled above the bar * p<0.05, ** p<0.01.
Eight of nine groups (10 mice in each group) of male DBA/1J mice (age 9-10 weeks. H-2q haplotype) were subject to CIA model induction and then to different treatment schemes. The group of mice without CIA model induction was used as a control (Blank). Specifically, Bovine type II collagen (Chondrex) was mixed with Freund's complete adjuvant (CFA) (Sigma) and injected s.c. to flank near tail of the mice twice (the second injection was made 21 days after the first injection) to create CIA model mice. The eight groups of CIA model mice were separated into four prophylactic groups and four therapeutic groups, with each group subjected to different treatments.
In the four prophylactic groups, daily treatments started from the date when the first CIA induction injection was made. The first of the four prophylactic groups of CIA model mice were treated with 30% PEG300 (containing 4% DMSO-all 30% PEG300 in the application contains 4% DMSO) solution via intraperitoneal injection as controls (Model). The second of the four prophylactic groups of CIA model mice were treated with nicotinohydrazide (Calbiochem) 10 mg/kg in 30% PEG300 solution via intraperitoneal injection (573108 10 mg/kg). The third of the four prophylactic groups of CIA model mice were treated with nicotinohydrazide (Calbiochem) 5 mg/kg in 30% PEG300 solution via intraperitoneal injection (573108 5 mg/kg). The last of the four prophylactic groups of CIA model mice were treated with Tofacitinib (Selleckchem) 5 mg/kg in 30% PEG300 solution via intraperitoneal injection (Tofacitinib 5 mg/kg).
In the four therapeutic groups, daily treatments started from the date when the second CIA induction injection was made. The first of the four therapeutic groups of CIA model mice were treated with 30% PEG300 solution via intraperitoneal injection as controls (Model). The second of the four therapeutic groups of CIA model mice were treated with nicotinohydrazide (Calbiochem) 10 mg/kg in 30% PEG300 solution via intraperitoncal injection (573108 10 mg/kg). The third of the four therapeutic groups of CIA model mice were treated with nicotinohydrazide (Calbiochem) 5 mg/kg in 30% PEG300 solution via intraperitoneal injection (573108 5 mg/kg). The last of the four therapeutic groups of CIA model mice were treated with Tofacitinib (Selleckchem) 5 mg/kg in 30% PEG300 solution via intraperitoncal injection (Tofacitinib 5 mg/kg).
The inventors collected data of the weight, and clinical scores of the mice every 2-3 days and performed statistic analysis. The method used in the statistic analysis was Student's t test, unpaired, two-tailed analysis.
The clinical scores were derived according to the scheme in Table 2.

STAT3 = STAT3 (Homo sapiens, UniProt P40763); set-up: IFNα-stimulated STAT1 phosphorylation or LIF-stimulated STAT3 phosphorylation in K562 cells; endogenous in cells; host or cells: K562 cells; conditions: K562 cells, 10 μM 1 h pretreatment; cited from earlier work
Chain of STAT3 (P40763 whole entry): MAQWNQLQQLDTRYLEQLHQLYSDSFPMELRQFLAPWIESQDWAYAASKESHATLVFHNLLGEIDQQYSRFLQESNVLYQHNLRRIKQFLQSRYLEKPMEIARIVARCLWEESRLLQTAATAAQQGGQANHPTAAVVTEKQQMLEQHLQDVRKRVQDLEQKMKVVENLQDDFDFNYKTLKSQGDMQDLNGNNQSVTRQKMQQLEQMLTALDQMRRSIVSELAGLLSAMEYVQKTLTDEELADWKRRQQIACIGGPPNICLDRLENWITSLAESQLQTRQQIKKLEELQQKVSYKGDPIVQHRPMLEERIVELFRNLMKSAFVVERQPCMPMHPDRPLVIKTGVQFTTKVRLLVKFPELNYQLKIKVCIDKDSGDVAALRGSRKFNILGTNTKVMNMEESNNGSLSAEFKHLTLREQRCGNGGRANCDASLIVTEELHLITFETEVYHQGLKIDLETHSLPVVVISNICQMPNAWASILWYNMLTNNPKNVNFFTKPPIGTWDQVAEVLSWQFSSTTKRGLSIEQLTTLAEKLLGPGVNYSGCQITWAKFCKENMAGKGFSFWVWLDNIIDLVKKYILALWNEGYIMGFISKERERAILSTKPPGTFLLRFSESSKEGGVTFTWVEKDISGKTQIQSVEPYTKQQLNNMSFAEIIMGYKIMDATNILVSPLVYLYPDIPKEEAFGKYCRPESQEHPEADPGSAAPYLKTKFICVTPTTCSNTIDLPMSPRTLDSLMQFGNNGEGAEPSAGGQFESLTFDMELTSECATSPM

What does the source list for `O=C(N/N=C/c1coc2ccccc2c1=O)c1cccnc1` [nicotinohydrazide, N′-((4-Oxo-4H-chromen-3-yl)methylene)nicotinohydrazide]?
clinical scores compared to Model ([1]; prophylactic groups, 5 mg/kg i.p. daily): reduced clinical scores; clinical scores compared to Model ([1]; prophylactic groups, 10 mg/kg i.p. daily): reduced clinical scores; Pairwise analysis of the difference between groups (clinical scores), vs Model ([1]; prophylactic groups, 5 mpk, Day 28): 0.1019; Pairwise analysis of the difference between groups (clinical scores), vs Model ([1]; prophylactic groups, 5 mpk, Day 30): 0.0410; Pairwise analysis of the difference between groups (clinical scores), vs Model ([1]; prophylactic groups, 5 mpk, Day 32): 0.0740; Pairwise analysis of the difference between groups (clinical scores), vs Model ([1]; prophylactic groups, 5 mpk, Day 35): 0.0615; Pairwise analysis of the difference between groups (clinical scores), vs Model ([1]; prophylactic groups, 5 mpk, Day 37): 0.1101; Pairwise analysis of the difference between groups (clinical scores), vs Model ([1]; prophylactic groups, 5 mpk, Day 39): 0.0010; Pairwise analysis of the difference between groups (clinical scores), vs Model ([1]; prophylactic groups, 5 mpk, Day 42): 0.0185; Pairwise analysis of the difference between groups (clinical scores), vs Model ([1]; prophylactic groups, 5 mpk, Day 44): 0.2729; Pairwise analysis of the difference between groups (clinical scores), vs Model ([1]; prophylactic groups, 10 mpk, Day 28): 0.1491; Pairwise analysis of the difference between groups (clinical scores), vs Model ([1]; prophylactic groups, 10 mpk, Day 30): 0.1452; Pairwise analysis of the difference between groups (clinical scores), vs Model ([1]; prophylactic groups, 10 mpk, Day 32): 0.1256; Pairwise analysis of the difference between groups (clinical scores), vs Model ([1]; prophylactic groups, 10 mpk, Day 35): 0.0354; Pairwise analysis of the difference between groups (clinical scores), vs Model ([1]; prophylactic groups, 10 mpk, Day 37): 0.0614; Pairwise analysis of the difference between groups (clinical scores), vs Model ([1]; prophylactic groups, 10 mpk, Day 39): 0.0008; Pairwise analysis of the difference between groups (clinical scores), vs Model ([1]; prophylactic groups, 10 mpk, Day 42): 0.0033; Pairwise analysis of the difference between groups (clinical scores), vs Model ([1]; prophylactic groups, 10 mpk, Day 44): 0.0128; Pairwise analysis of the difference between groups (clinical scores), S5i 5 mpk vs S5i 10 mpk ([1]; prophylactic groups, Day 28): 0.7387; Pairwise analysis of the difference between groups (clinical scores), S5i 5 mpk vs S5i 10 mpk ([1]; prophylactic groups, Day 30): 0.5943; Pairwise analysis of the difference between groups (clinical scores), S5i 5 mpk vs S5i 10 mpk ([1]; prophylactic groups, Day 32): 0.8722; Pairwise analysis of the difference between groups (clinical scores), S5i 5 mpk vs S5i 10 mpk ([1]; prophylactic groups, Day 35): 0.7717; Pairwise analysis of the difference between groups (clinical scores), S5i 5 mpk vs S5i 10 mpk ([1]; prophylactic groups, Day 37): 0.8686; Pairwise analysis of the difference between groups (clinical scores), S5i 5 mpk vs S5i 10 mpk ([1]; prophylactic groups, Day 39): 0.9741; Pairwise analysis of the difference between groups (clinical scores), S5i 5 mpk vs S5i 10 mpk ([1]; prophylactic groups, Day 42): 0.1588; Pairwise analysis of the difference between groups (clinical scores), S5i 5 mpk vs S5i 10 mpk ([1]; prophylactic groups, Day 44): 0.0717; clinical scores compared to Model ([1]; therapeutic groups, 5 mg/kg i.p. daily): reduced clinical scores; clinical scores compared to Model ([1]; therapeutic groups, 10 mg/kg i.p. daily): reduced clinical scores; Pairwise analysis of the difference between groups (clinical scores), vs Model ([1]; therapeutic groups, 5 mpk, Day 28): 0.0117; Pairwise analysis of the difference between groups (clinical scores), vs Model ([1]; therapeutic groups, 5 mpk, Day 30): 0.0295; Pairwise analysis of the difference between groups (clinical scores), vs Model ([1]; therapeutic groups, 5 mpk, Day 32): 0.0032; Pairwise analysis of the difference between groups (clinical scores), vs Model ([1]; therapeutic groups, 5 mpk, Day 35): 0.0025; Pairwise analysis of the difference between groups (clinical scores), vs Model ([1]; therapeutic groups, 5 mpk, Day 37): 0.0024; Pairwise analysis of the difference between groups (clinical scores), vs Model ([1]; therapeutic groups, 5 mpk, Day 39): 0.0019; Pairwise analysis of the difference between groups (clinical scores), vs Model ([1]; therapeutic groups, 5 mpk, Day 42): 0.0044; Pairwise analysis of the difference between groups (clinical scores), vs Model ([1]; therapeutic groups, 5 mpk, Day 44): 0.0012; Pairwise analysis of the difference between groups (clinical scores), vs Model ([1]; therapeutic groups, 10 mpk, Day 28): 0.0399; Pairwise analysis of the difference between groups (clinical scores), vs Model ([1]; therapeutic groups, 10 mpk, Day 30): 0.0190; Pairwise analysis of the difference between groups (clinical scores), vs Model ([1]; therapeutic groups, 10 mpk, Day 32): 0.0080; Pairwise analysis of the difference between groups (clinical scores), vs Model ([1]; therapeutic groups, 10 mpk, Day 35): 0.1008; Pairwise analysis of the difference between groups (clinical scores), vs Model ([1]; therapeutic groups, 10 mpk, Day 37): 0.1336; Pairwise analysis of the difference between groups (clinical scores), vs Model ([1]; therapeutic groups, 10 mpk, Day 39): 0.1189; Pairwise analysis of the difference between groups (clinical scores), vs Model ([1]; therapeutic groups, 10 mpk, Day 42): 0.0820; Pairwise analysis of the difference between groups (clinical scores), vs Model ([1]; therapeutic groups, 10 mpk, Day 44): 0.0397; Pairwise analysis of the difference between groups (clinical scores), S5i 5 mpk vs S5i 10 mpk ([1]; therapeutic groups, Day 28): 0.4163; Pairwise analysis of the difference between groups (clinical scores), S5i 5 mpk vs S5i 10 mpk ([1]; therapeutic groups, Day 30): 0.8721; Pairwise analysis of the difference between groups (clinical scores), S5i 5 mpk vs S5i 10 mpk ([1]; therapeutic groups, Day 32): 0.4838; Pairwise analysis of the difference between groups (clinical scores), S5i 5 mpk vs S5i 10 mpk ([1]; therapeutic groups, Day 35): 0.0249; Pairwise analysis of the difference between groups (clinical scores), S5i 5 mpk vs S5i 10 mpk ([1]; therapeutic groups, Day 37): 0.0183; Pairwise analysis of the difference between groups (clinical scores), S5i 5 mpk vs S5i 10 mpk ([1]; therapeutic groups, Day 39): 0.0183; Pairwise analysis of the difference between groups (clinical scores), S5i 5 mpk vs S5i 10 mpk ([1]; therapeutic groups, Day 42): 0.0777; Pairwise analysis of the difference between groups (clinical scores), S5i 5 mpk vs S5i 10 mpk ([1]; therapeutic groups, Day 44): 0.0842

Which “LIF-stimulated STAT3 phosphorylation” value (STAT3) does the source give for `O=c1[nH]c2ccccc2n1C1CCN(CCCC(c2ccc(F)cc2)c2ccc(F)cc2)CC1` [pimozide, 1-[1-[4,4-bis(4-fluorophenyl)butyl]-4-piperidinyl]-1,3-dihydro-2H-benzimidazole-2-one] here?
Its value is “little activity”.

Reference: patent US11612595B2, “Compositions and methods for treating rheumatoid arthritis” (Generos Biopharma Ltd., priority 2017, dated 2023)
